Assay results: patent publication US8703438B2, “Ligand binding stabilization method for drug target identification” (The Regents of the University of California, priority 2008, dated 2014)

Assays:
[1] = system: eIF4A-dependent translation in HEK 293 cells; assay: In vivo translation assay with bicistronic dual-luciferase reporters; assay type: cell-based, human; settings: HEK293, Dual-Glo
From the text: (§1) FIG. 4A: Chemical structure of resveratrol. FIG. 4B: Yeast cell lysates and human HeLa cell lysates were each treated with resveratrol in vitro followed by thermolysin digestion and silver staining. Protected bands of similar size were detected. FIG. 4C: Resveratrol protects TAP-tagged eIF4A, but not an unrelated Htb2, protein from proteolysis. Arrow: protein protected from subtilisin proteolysis (H. sapiens (SEQ ID NO:1), M. musculus (SEQ ID NO:2), X. laevis (SEQ ID NO:3), D. melanogaster (SEQ ID NO:4), C. elegans (SEQ ID NO:5), S. purpuratus (SEQ ID NO:6), C. reinhardtii (SEQ ID NO:7), A. thaliana (SEQ ID NO:8), H. andersenii (SEQ ID NO:9), S. cerevisiae (SEQ ID NO:10)). FIG. 4D: Resveratrol inhibits eIF4A-dependent translation in HEK 293 cells as assayed by bicistronic translation reporters. […] FIG. 4E: eIF4A is required for longevity in resveratrol-treated animals. Resveratrol (50 μM) lengthens the lifespan of wild-type N2 worms fed control (gfp) RNAi (green), but not worms fed eIF4A (inf-1) RNAi (red) or daf-16 RNAi (blue). gfp(RNAi), mVeh=19 (n=74), mRSV=20 (n=78), P=0.0006***; inf-1(RNAi), mVeh=26 (n=76), mRSV=24 (n=79), P=0.4687; daf-16(RNAi), mVeh=17 (n=78), mRSV=17 (n=76), P=0.3305. m, mean lifespan (days of adulthood); n, number of animals tested.
The molecular mechanisms underlying resveratrol's lifespan effect have been controversial (Howitz et al. (2003) Nature 425: 191-196; Kaeberlein et al. (2005) J Biol Chem 280: 17038-17045), and whether Sir2 serves as a direct target for resveratrol is an interesting problem that is being pursued. […]
HEK293 cells in DMEM+10% FBS were pre-treated with 50 μM resveratrol for 1 hr, and transfected with bicistronic translation reporter plasmids using LipoD293 DNA in vitro transfection reagent (SignaGen). […] Reporter activity was measured 33 hr post-transfection using the Dual-Glo luciferase assay system (Promega) with an Analyst HT plate reader (Molecular Devices). […]

C. elegans N2 worms = assay: C. elegans lifespan analysis; assay type: in vivo; settings: resveratrol 50 μM
From the text: as §1
N2 wild-type strains were maintained at 20° C. on standard nematode growth medium (NGM) seeded with E. coli OP50 as described (Brenner (1974) Genetics 77: 71-94). E. coli RNAi strains were obtained from Open Biosystems; clones were verified by sequencing. To make NGM plates containing resveratrol or vehicle, 240 μl of a solution containing 2.5 mM resveratrol (or the equivalent amount of ethanol, for vehicle control), 20% DMSO, 20% ethanol, 10% phosphate buffered saline (PBS), and 50% ddH20 were spread on top of the NGM plate, making a 50 μM final concentration of resveratrol in the plate. Resveratrol was dissolved in 95% ethanol and stored in 4° C.
Lifespan analysis was conducted with N2 worms at 20° C. Eggs were added to NGM plates containing OP50. […]

[2] = system: yeast (wild type, tif1 or tif2 deletion mutants); assay: Yeast growth inhibition; assay type: cell-based; settings: final concentration ˜1 mM
From the text: (§2) For cytotoxic and cytostatic small molecules, deletion mutants in their target often would have increased sensitivity to the drug (and overexpression could decrease sensitivity). Indeed, this is the basis for the elegant haploinsufficiency profiling (HIP) strategy (Giaever et al. (1999) Nat Genet. 21: 278-283). However, an inherent limitation of this type of fitness-based methods is that they are applicable only to drugs that affect cell growth/viability, i.e., cytotoxic or cytostatic drugs. […] A key advantage of DARTS is that it is independent of the drug's biological phenotype, and thus is not limited to the studies of cytotoxic/cytostatic drugs or drugs that induce transcriptional or morphological changes which have been the limitation of previous methods.

[3] = target: T1, in vitro translated firefly luciferase (Photinus pyralis, UniProt P08659); assay: Effect on firefly luciferase reaction in luciferase assay kits; assay type: biochemical
T1 construct: made in house
From the text: Our data in FIG. 4D were based on the Dual-Glo kit, in which the luciferase reaction is not affected by resveratrol. Also, there was no resveratrol added to the in vitro luciferase assay reactions in FIG. 4D. Rather, resveratrol was used to treat cells and washed away before the cells were lysed for luciferase assay.

[4] = Precipitation in yeast culture medium; assay type: physicochemical; settings: final concentration ˜1 mM
From the text: as §2

T1 sequence (P08659 whole entry): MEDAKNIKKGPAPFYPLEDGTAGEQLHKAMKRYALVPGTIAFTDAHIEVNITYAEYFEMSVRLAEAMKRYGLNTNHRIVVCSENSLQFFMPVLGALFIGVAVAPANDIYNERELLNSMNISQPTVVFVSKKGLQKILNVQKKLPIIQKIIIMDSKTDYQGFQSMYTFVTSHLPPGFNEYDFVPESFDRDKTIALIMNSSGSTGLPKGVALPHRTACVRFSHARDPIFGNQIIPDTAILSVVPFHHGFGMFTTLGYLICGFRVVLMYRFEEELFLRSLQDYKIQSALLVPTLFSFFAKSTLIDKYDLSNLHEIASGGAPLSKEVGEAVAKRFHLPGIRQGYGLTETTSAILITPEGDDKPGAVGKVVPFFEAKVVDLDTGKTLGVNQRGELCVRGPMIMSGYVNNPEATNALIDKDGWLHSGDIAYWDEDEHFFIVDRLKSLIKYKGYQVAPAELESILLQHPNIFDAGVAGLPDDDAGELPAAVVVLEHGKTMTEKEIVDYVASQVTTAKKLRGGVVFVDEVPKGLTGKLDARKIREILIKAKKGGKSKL

Oc1ccc(C=Cc2cc(O)cc(O)c2)cc1 [resveratrol]
translation from the eIF4A-independent HCV IRES [1]: unaffected
EMCV IRES-mediated translation ([1]; requires eIF4A): inhibited in a dose-dependent manner
cap-dependent translation ([1]; requires eIF4A): inhibited in a dose-dependent manner
mean lifespan (C. elegans N2 worms; N2 worms fed daf-16(RNAi), vehicle 17, P=0.3305): 17 days of adulthood
mean lifespan (C. elegans N2 worms; N2 worms fed gfp(RNAi) control, vehicle 19, P=0.0006): 20 days of adulthood
mean lifespan (C. elegans N2 worms; N2 worms fed inf-1(RNAi) (eIF4A), vehicle 26, P=0.4687): 24 days of adulthood
inhibition of yeast growth [2]: did not cause detectable inhibition of yeast growth
firefly luciferase readout ([3]; Bright-Glo kit (Promega #E2610)): significantly decreased
firefly luciferase readout ([3]; Dual-Glo kit (Promega #E2940)): little or no inhibition
behaviour in culture medium [4]: precipitated out of the culture medium
